Test results: patent US20210270843A1, “Immune Monitoring of Neuro-Inflammatory Amyotrophic Lateral Sclerosis (ALS)” (RAPA THERAPEUTICS, LLC, priority 2018, published 2021)
Several values for one entry are separate records, joined by “and”; a condition that tells them apart may be missing. Identical values can stand only once.

Key:
[1] = system: peripheral blood mononuclear cells from ALS patient; experiment: Autonomous cytokine secretion of ALS patient PBMC before and during etanercept therapy; type: in vivo, human; details: etanercept 50 mg per week s.c., PBMC incubated 24 hr without stimulation, similar on three values over three months
Description: We have observed that ALS patients can manifest autonomous inflammatory cytokine secretion when incubation of T cell- and monocyte-containing inoculum occurs for 24 hours in X-Vivo 20 media supplemented only with 5% human serum (FIG. 3). FIG. 3 depicts ALS patient and normal control autonomous cytokine secretion. ALS patient (“ALS”) and normal control (“NC”) peripheral blood mononuclear cells were either not separated (FIG. 3, right panel; mixture of T cells and monocytes), or separated into CD14^+ monocyte cells (FIG. 3, left panel) or CD3^+ T cells (FIG. 3, middle panel). The cells were incubated for 24 hours in media without any stimulation additives. After 24 hours, the supernatant was harvested and tested for cytokine content; TNF-α content is shown, with result described as pg per ml per 1×10^6 cells per 24 hours. […]
We reasoned that detection of autonomous secretion of inflammatory cytokines will have potential clinical implications, for example, in the monitoring of ALS disease response to investigational therapy. Towards this aim, we evaluated cytokine secretion in an ALS patient prior to and then after experimental therapy with the anti-TNF-α soluble recombinant receptor, etancercept (Enbrel®); there have been no reports of clinical trials evaluating etanercept therapy of ALS. […]

[2] = system: T cell receptor repertoire; experiment: RNA-based T cell receptor repertoire sequencing of ALS patient PBMC pre- and post-etanercept therapy
PBMC = experiment: CD40 ligand-driven cytokine secretion of PBMC (24 h culture, multiplex assay); type: cell-based; details: X-Vivo 20 media with 5% human serum
Text: Given this possibility, we evaluated whether simple addition of the recombinant human (rhu) CD40L molecule might uncover autonomous inflammatory cytokine secretion in ALS patients. There are no reports in the literature to date pertaining to CD40L-stimulation of ALS patient PBMC. […] Therefore, the detection of the inflammatory subset of ALS can be expanded by inclusion of patients that secrete cytokines autonomously and those patients that secrete inflammatory cytokines after CD40L stimulation. Patient hypersensitivity to CD40 ligand is driven by an imbalance in the post-CD40 receptor signaling pathway, with increased TRAF6 contribution to the signaling cascade during neuro-inflammation; importantly, the TRAF2 and TRAF3 family members inhibit post-CD40 signaling. As such, given this information, our monitoring method will also include Western Blot analyses for the detection of ALS patient balance of the TRAF family of proteins.
In FIG. 6, a sibling of a subject who was a carrier for the C9orf72 mutation was evaluated for autonomous cytokine secretion. […] This illustrates the importance of both neurologic and immunologic risk factors. […]

[3] = individual clones, post- versus pre-etanercept

Molecule	autonomous secretion of IL-6 [1]	autonomous secretion of TNF-α [1]	TCR clonality, Diversity Index (CHAOE) after therapy ([2]; ALS patient post-therapy, pre-therapy sample approximately 650,000, normal controls ~300,000)	reduction in TCR clonality in post-therapy sample ([2]; ALS patient, post- versus pre-therapy) [%]	T cell clonal contraction [2, 3]	T cell clonal expansion [2, 3]	post-treatment frequency of contracted T cell clones ([2]; several clones, pre-etanercept frequencies 259 to 598)	inflammatory cytokine production (PBMC; PBMC from an ALS patient)	cytokine secretion after stimulation with CD40L (PBMC; PBMC from sibling of a C9orf72 mutation carrier)
etanercept	reduced	reduced	approximately 599,000	~10	more than 4 log and ~4 log	more than 4 log and ~4 log	0.01		
rhu CD40L: recombinant human (rhu) CD40L molecule (protein, UniProt P29965 113-261, looked up) CD40 ligand, soluble form: MQKGDQNPQIAAHVISEASSKTTSVLQWAEKGYYTMSNNLVTLENGKQLTVKRQGLYYIYAQVTFCSNREASSQAPFIASLCLKSPGRFERILLRAANTHSSAKPCGQQSIHLGGVFELQPGASVFVNVTDPSQVSHGTGFTSFGLLKL								can induce inflammatory cytokine production	high levels of cytokine secretion
